Results published in patent publication US8895806B2, “Fucosyl transferase gene” (priority 1999, dated 2014).
Like-named read-outs stand apart in the source and are kept apart here.

Assays:
Format in all cases: biochemical, mung bean
[1] = target: recombinant GlcNAc-α1,3-fucosyl transferase (Vigna radiata, UniProt Q9ST51); assay: Assay for GlcNAc-α1,3-fucosyl transferase activity (GnGn peptide and GDP-L-[U-14C]-fucose); conditions: for Km: acceptor or donor substrate, unit inferred, read-out: apparent Km-values; for Rel. Activity: acceptor substrate, standard test conditions
[2] = test system: GlcNAc-α1,3-fucosyl transferase activity; assay: Enzyme activity of insect cells transfected with the α1,3-fucosyl transferase gene versus negative control
Text: The encoding region of the assumed GlcNAc-α1,3-fucosyl transferase including cytoplasmatic and transmembrane region was amplified with the forward primer 5′-[…]-3′ (SEQ ID NO: 16) and reverse primer 5′-[…]-3′ (SEQ ID NO: 17) by means of the Expand High Fidelity PCR System of Boehringer Mannheim. The PCR product was double-digested with PstI and BamHI and subcloned in alkaline phosphatase-treated baculovirus transfer vector pVL1393 which previously had been digested with PstI and BamHI. To ensure a homologous recombination, the transfer vector was co-transfected with Baculo Gold viral DNA (PharMingen, Sand Diego, Calif.) in Sf9 insect cells in IPL-41 Medium with lipofectin. After an incubation of 5 days at 27° C., various volumes of the supernatant with the recombinant virus were used for infecting the Sf21 insect cells. After an incubation of 4 days at 27° C. in IPL-41 Medium with 5% FCS, the […] cells were harvested and washed 2× with phosphate-buffered saline solution. The cells were resuspended in 25 mM Tris HCl buffer, pH 7.4, with 2% Triton X-100 and broken up by sonication on ice.
The homogenate and the cell supernatant were assayed for GlcNAc-α1,3-fucosyl transferase. Blind samples were carried out with recombinant baculovirus which codes for the tobacco-GlcNAc-transferase I (Strasser et al., 1999, Glycobiology, in the process of printing). […]

[3] = substrate: C[C@@H]1O[C@H](OP(=O)(O)OP(=O)(O)OC[C@H]2O[C@@H](n3cnc4c(=O)[nH]c(N)nc43)[C@H](O)[C@@H]2O)[C@@H](O)[C@H](O)[C@@H]1O; assay: Assay for GlcNAc-α1,3-fucosyl transferase activity (GnGn peptide and GDP-L-[U-14C]-fucose); conditions: other: acceptor or donor substrate, unit inferred; pH 7.4; 27.0 °C
[4] = additive conc. 10 mM, recombinant transferase

## GlcNAcβ1-2Manα1-3[Manα1-3(Manα1-6)Manα1-6]Manβ1-4GlcNAcβ1-4GlcNAcβ1-Asn [M5Gn-Asn]
[1]
  Km: 230 µM
[1]; recombinant transferase
  Rel. Activity: 71%

## [Cl][Cd][Cl] [CdCl2]
[1]; additive conc. 10 mM, […]
  Relative Activity (Acceptor: GnGn-peptide): 44%

## [Cl-].[Cl-].[Mg+2] [MgCl2]
[1]; [4]
  Relative Activity (Acceptor: GnGn-peptide): 52%

## [Cl-].[Cl-].[Zn+2] [ZnCl2]
[1]; [4]
  Relative Activity (Acceptor: GnGn-peptide): 0.6%

## CC(=O)N[C@H]1C(O)O[C@H](CO)[C@@H](O[C@@H]2O[C@H](CO)[C@H](O)[C@H](O)[C@H]2O)[C@@H]1O (stereo partly shown) [Galβ-4GlcNAc]
[1]; recombinant transferase
  Rel. Activity: 0%

## GlcNAcβ1-2Manα1-3(GlcNAcβ1-2Manα1-6)Manβ1-4GlcNAcβ1-4(Fucα1-6)GlcNAcβ1-Asn [GnGnF^6-peptide]
[1]
  Km: 130 µM
[1]; recombinant transferase
  Rel. Activity: 87%

## Galβ1-3GlcNAc
[1]; recombinant transferase
  Rel. Activity: 0%

## [Cl][Ni][Cl] [NiCl2]
[1]; additive conc. 10 mM, […]
  Relative Activity (Acceptor: GnGn-peptide): 24%

## O=C(O)CN(CCN(CC(=O)O)CC(=O)O)CC(=O)O [EDTA]
[1]; [4]
  Relative Activity (Acceptor: GnGn-peptide): 18%

## Galβ1-3GlcNAcβ1-3Galβ1-4Glc
[1]; recombinant transferase
  Rel. Activity: 0%

## [Cl][Cu][Cl] [CuCl2]
[1]; [4]
  Relative Activity (Acceptor: GnGn-peptide): 3%

## [Cl][Mn][Cl] [MnCl2]
[1]; additive conc. 10 mM, […]
  Relative Activity (Acceptor: GnGn-peptide): 100%
[1]; result in words
  effect of addition of bivalent cations on activity of the recombinant transferase: enhances the activity

## GlcNAcβ1-2Manα1-3(GlcNAβ1-2Manα1-6)Manβ1-4GlcNAcβ1-4GlcNAcβ1-Asn [GnGn-peptide]
[1]
  Km: 190 µM
[1]; recombinant transferase
  Rel. Activity: 100%

## [Ca+2].[Cl-].[Cl-] [CaCl2]
[1]; additive conc. 10 mM, […]
  Relative Activity (Acceptor: GnGn-peptide): 82%

## [Cl-].[Cl-].[Co+2] [CoCl2]
[1]
  Relative Activity (Acceptor: GnGn-peptide): 35%

B1: recombinant GlcNAc-α1,3-fucosyl transferase (Vigna radiata var. radiata) (protein)
chain: MMGLLTNLRGSRTDGAQQDSLPVLAPGGNPKRKWSNLMPLVVALVVIAEIAFLGRLDMAKNAAMVDSLADFFYRSRAVVEGDDLGLGLVASDRNSESYSCEEWLEREDAVTYSRGFSKEPIFVSGADQEWKSCSVGCKFGFSGDRKPDAAFGLPQPSGTASILRSMESAEYYAENNIAMARRRGYNIVMTTSLSSDVPVGYFSWAEYDMMAPVQPKTEAALAAAFISNCGARNFRLQALEALEKSNIKIDSYGGCHRNRDGRVNKVEALKHYKFSLAFENSNEEDYVTEKFFQSLVAGTVPVVVGAPNIQDFAPSPGSILHIKEIEDVESVAKTMRYLAENPEAYNQSLRWKYEGPSDSFKALVDMAAVHSSCRLCIHLATVSREKEENNPSLKRRPCKCTRGPETVYHIYVRERGRFEMESIYLRSSNLTLNAVKAAVVLKFTSLNLVPVWKTERPEVIRGGSALKLYKIYPIGLTQRQALYTFSFKGDADFRSHLENNPCAKFEVIFV
[2]; Sf21 insect cells, homogenate and supernatant, at best
  enzyme activity of the cotransfected cells and their supernatant relative to negative controls: ≤ 30 ×
[2]; corrected for endogenous insect α1,6-fucosyl transferase activity
  increase in the GlcNAc-α1,3-fucosyl transferase coming from the recombinant baculoviruses: > 100 -fold
[3]
  Km: 110 µM
